Here are results for 4 compounds from PMC4222603, “Dual inhibition of HIV-1 replication by integrase-LEDGF allosteric inhibitors is predominant at the post-integration stage” (Retrovirology, 2013).

Assay [1] has as its target T1, IN strand transfer activity (full-length HIV-1 IN) (Human immunodeficiency virus type 1 group M subtype B, UniProt P12497).
T1 construct: were carried out at 37°C with the full-length HIV-1 IN
Briefly: IN strand transfer radioactive assay. The class given is biochemical. From the text: (§1) Sequences of the different oligonucleotides (ODN) substrates are U5B: 5′-[…]-3′, U5A: 5′- […]-3′ and U5B-2: 5′-[…]-3′. ODNs were purchased from Eurogentec and further purified by electrophoresis in a denaturing 16% acrylamide/urea gel. For activity assays, ODNs (U5B and U5B-2) were radiolabelled with T4 polynucleotide kinase (New England Biolabs) and γ[^32-P]ATP (3000 Ci/mmol) (Amersham), and purified on a Sephadex G-10 column (GE Healthcare). Double-stranded ODNs (U5B with U5A and U5B-2 with U5A used for 3′-processing and strand transfer reactions, respectively) were obtained by mixing equimolar amounts of complementary strands in the presence of 100 mM NaCl.
(§2) IN activity assays – 3′-processing, strand transfer – were carried out at 37°C with the full-length HIV-1 IN, in a buffer containing 10 mM HEPES (pH 7.2), 1 mM DTT, 7.5 mM MgCl2 in the presence of 6.25 nM DNA (3′-processing) or 12.5 nM DNA (strand transfer) as described previously. For negative control, 100 mM Na2EDTA was added to the reaction before incubation. Products were separated by electrophoresis in denaturing 16% acrylamide/urea gels. Gels were analysed with a Molecular Dynamics STORM phosphoimager and quantified with ImageQuant™ 4.1 software.

Assay [2] concerns the target T2, IN 3′ processing activity (Human immunodeficiency virus type 1 group M subtype B, UniProt P12497).
T2 construct: were carried out at 37°C with the full-length HIV-1 IN
Briefly: IN 3′ processing radioactive assay. The class given is biochemical, HIV-1. The conditions noted are these: at 100 nM.
Source text: as §1, §2

Assay [3] deals with HIV-1 NL4-3. Briefly: Antiviral assay in MT-4 cells, multiple-round infection, CellTiter-Glo. The conditions noted are these: Human immunodeficiency virus 1, NL43; MT4 cells; mean of six independent experiments; read-out: NL4-3 EC50 Multiple-round. It is filed as cell-based. As to the method:
MT-4 cells growing exponentially at the density of 10^6/mL were infected with HIV-1 strain NL4-3 at a MOI (multiplicity of infection) of 0.001 for 2 h. The cells were washed with PBS and aliquoted, using 100 μL fresh complete RPMI, into 96-well white plates (Corning) in the presence of different concentrations of compounds.

Assay [4] deals with VSV-G-pseudotyped NL4-3Δenv-luc. The assay can be described thus: microbe, parasite or virus in culture. The class given is cell-based, HIV-1.
The test system of assay [5] is HIV-1 NL4-3 wt. It is filed as cell-based.
Assay [6] has as its system NL4-3 IN T174I mutant virus. The class given is cell-based, HIV-1.
For assay [7], the system named is HIV-1 LAV virions produced by HeLa-LAV cells. Briefly: Virions produced by compound-treated HeLa-LAV cells: p24 and infectivity. The class given is cell-based. The conditions noted are these: luciferase assay in TZM cells.
In assay [8] the target is His6-IN (HIV-1 NL4-3 integrase wild type, from pINSD.His) (HIV-1 NL4-3). The assay can be described thus: SEC; Superdex 200 10/300 GL, 0.4 mL/min, 50 mM HEPES pH 7.5, 1 M NaCl, 7 mM CHAPS, 5 mM MgCl2, 10 mM DTT, 10% glycerol, room temperature; His6-IN wt 21 uM or His6-IN A128T 40 uM incubated for 10 min with 100 uM BI-D or Mut101 before injection.
The target is the same in assay [9]. The assay can be described thus: SEC; Superdex 200 10/300 GL, 0.4 mL/min, 50 mM HEPES pH 7.5, 1 M NaCl, 7 mM CHAPS, 5 mM MgCl2, 10 mM DTT, 10% glycerol, room temperature; His6-IN wt 21 uM or His6-IN A128T 40 uM; no compound.
Assay [10] concerns the target His6-IN A128T (HIV-1 NL4-3 integrase mutant A128T) (HIV-1 NL4-3). Briefly: SEC; Superdex 200 10/300 GL, 0.4 mL/min, 50 mM HEPES pH 7.5, 1 M NaCl, 7 mM CHAPS, 5 mM MgCl2, 10 mM DTT, 10% glycerol, room temperature; His6-IN wt 21 uM or His6-IN A128T 40 uM incubated for 10 min with 100 uM BI-D or Mut101 before injection.
Assay [11] has the same target. The assay can be described thus: SEC; Superdex 200 10/300 GL, 0.4 mL/min, 50 mM HEPES pH 7.5, 1 M NaCl, 7 mM CHAPS, 5 mM MgCl2, 10 mM DTT, 10% glycerol, room temperature; His6-IN wt 21 uM or His6-IN A128T 40 uM; no compound.

pEC50, pIC50: −log10 of the molar value.

`C[C@@H]1CCO[C@H]2Cn3cc(C(=O)NCc4ccc(F)cc4F)c(=O)c(O)c3C(=O)N12` [DTG, Dolutegravir, reference compound]: the pIC50 in assay [1] is 8.57. In addition, the inhibition at 0.1 µM in assay [2] turned out to be 16%.
As for `CC(C)(C)NC(=O)[C@@H]1C[C@@H]2CCCC[C@@H]2CN1C[C@@H](O)[C@H](Cc1ccccc1)NC(=O)[C@H](CC(N)=O)NC(=O)c1ccc2ccccc2n1` [SQV, Saquinavir, reference compound], in [3], the pEC50 is 7.89. Besides, the “NL4-3 EC50 Single-round” value in assay [4] was “Inactive”. Further, the “Infectivity of NL4-3 wt virus produced in presence of compound” value in [5] is “sensitive to and inactivated”. Moreover, in assay [6], the “Infectivity of NL4-3 IN T174I virus produced in presence of compound” value was “sensitive to and inactivated”. In [7], the “Infectivity of virions from treated HeLa-LAV cells” value is reported as “strong virus infectivity defects”.
Take “His6-IN (HIV-1 NL4-3 integrase wild type, from pINSD.His) (enzyme)”: the stoichiometry N in assay [8] is 4; in assay [9], 2.
With “His6-IN A128T (HIV-1 NL4-3 integrase mutant A128T) (enzyme)”, the stoichiometry N is 4 in assay [10] and 2 in assay [11].
